We go through 1 compound from publication PMC4435632, “Phase 1 study of ixazomib, an investigational proteasome inhibitor, in advanced non-hematologic malignancies” (Investigational New Drugs, 2015).

A short description of data set [1]: Ixazomib in tumor biopsies (LC/MS/MS). Type of data set: in vivo, human. Conditions: TPEC, 1.76 mg/m^2; 10 evaluable patients. As to the method:
Tumor biopsies were analyzed for the presence of ixazomib using a quantified LC/MS/MS methodology validated in xenograft models. Expression of ATF-3 was measured in the TPEC using an IHC staining assay developed and validated using preclinical and human primary tumor samples. For this assay, formalin-fixed, paraffin-embedded tumor biopsy samples were obtained pre- and post-treatment (at 4–24 h post-dosing on day 1 or day 4 of cycle 1). Six 5 μm sections from each tumor sample were then cut (10 μm apart) and stained with antibody to ATF-3 (Santa Cruz Biotechnology, Inc., sc-188, lot:K1908) on a Discovery XT autostainer (Ventana Medical Systems, Inc.). After staining, whole slides were scanned and analyzed to calculate the percentage ATF-3-positive area for each section using the Genie™ (Aperio® ePathology Solutions) pattern recognition tool. The ATF-3-positive area was measured within the tumor region using the Positive Pixel Count algorithm, and the percentage ATF-3-positive area/total tumor area was then calculated for each section.
Approximately 16 patients were planned to be enrolled to the TPEC to estimate ixazomib concentrations in tumors and target engagement as ATF-3 expression levels. […] This value was used to determine the minimum number of sections (n = 6) for pharmacodynamic analysis and the size of the fold change in ATF-3 that could be detected with 80 % power. […]

Data set [2] has as its system patients with advanced non-hematologic malignancies. Put plainly: Dose-limiting toxicities in cycle 1 and determination of MTD. Type of data set: in vivo. The protocol: The dose-escalation cohort comprised patients with any non-hematologic malignancy. The four MTD expansion cohorts were limited to patients with non-small cell lung cancer (NSCLC), head and neck cancer (squamous cell cancer), soft tissue sarcoma, and prostate cancer, respectively. In addition, the TPEC was open to patients with non-hematologic malignancy that could be safely biopsied. Dose escalation initially proceeded from a starting dose of 0.125 mg/m^2 of body surface area, with one patient per dose level and dose doubling up to a dose of 1.0 mg/m^2. Dose doubling was permitted until one of the following occurred: one patient experienced a dose-limiting toxicity (DLT) during cycle 1; any two patients experienced a drug-related adverse event (AE) of grade ≥2 during cycle 1; or the dose level of 1 mg/m^2 had been evaluated. Dose escalation then proceeded in 33 % increments following a standard 3 + 3 schema based on the occurrence of DLTs in cycle 1. […]
The safety population included all patients who received ≥1 dose of ixazomib, and the DLT-evaluable population, which was used for determination of the MTD, comprised patients who received all cycle 1 doses of ixazomib or experienced a DLT in cycle 1. […] Approximately 16 response-evaluable patients were planned to be evaluated in each MTD expansion cohort.

The subject of data set [3] is advanced non-hematologic malignancies. Briefly: Disease response (RECIST 1.0 / modified PCWG2). Type of data set: in vivo, human. The text has this: AEs were monitored throughout the study and were graded according to National Cancer Institute Common Terminology Criteria for Adverse Events (NCI-CTCAE) v3.0. Response assessments were undertaken by investigators using a consistent imaging modality in accordance with RECIST 1.0 [23] on days 18–21 of cycle 2 and subsequent cycles. For patients with prostate cancer, response and progressive disease were based on RECIST for measurable neoplastic disease or on measurement of serum PSA per modified PCWG2 criteria in the absence of measurable sites.
The safety population included all patients who received ≥1 dose of ixazomib, and the DLT-evaluable population, which was used for determination of the MTD, comprised patients who received all cycle 1 doses of ixazomib or experienced a DLT in cycle 1. […] The response-evaluable population included all patients who received ≥1 dose of ixazomib, had measurable disease at baseline, and had ≥1 post-baseline disease assessment. Approximately 16 response-evaluable patients were planned to be evaluated in each MTD expansion cohort.

In data set [4] the test system is ATF-3. Put plainly: ATF-3 IHC staining in pre- and post-dose tumor biopsies. It counts as in vivo, human. Conditions: TPEC, 1.76 mg/m^2; seven evaluable tumor pairs. As to the method:
This open-label, non-randomized, dose-escalation phase 1 study was conducted at 7 sites in the United States and Canada, with patients enrolled from March 02, 2009 to January 10, 2012. The primary objective of the trial was to determine the safety profile, establish the maximum tolerated dose (MTD), and inform the recommended phase 2 dose of IV ixazomib in patients with non-hematologic malignancies. Secondary objectives were to characterize the pharmacokinetics and pharmacodynamics of IV ixazomib in blood and to evaluate disease response. Drug distribution and target engagement in post-dose tumor samples was measured by determining the increase in ATF-3 levels in post-dose tumor samples compared with pre-dose samples by immunohistochemistry (IHC).
Tumor biopsies were analyzed for the presence of ixazomib using a quantified LC/MS/MS methodology validated in xenograft models. Expression of ATF-3 was measured in the TPEC using an IHC staining assay developed and validated using preclinical and human primary tumor samples. For this assay, formalin-fixed, paraffin-embedded tumor biopsy samples were obtained pre- and post-treatment (at 4–24 h post-dosing on day 1 or day 4 of cycle 1). […] After staining, whole slides were scanned and analyzed to calculate the percentage ATF-3-positive area for each section using the Genie™ (Aperio® ePathology Solutions) pattern recognition tool. […]

As to `CC(C)C[C@H](NC(=O)CNC(=O)c1cc(Cl)ccc1Cl)B(O)O` [ixazomib], in data set [1], the “Ixazomib in post-dose tumor biopsies” value is on record as “present in all 10 post-dose biopsies analyzed”. For the same compound, the “MTD (maximum tolerated dose)” value in data set [2] (IV on days 1, 4, 8, and 11 of a 21-day cycle) was determined as 1.76 mg/m^2. The “Patients who experienced DLTs” value in data set [2] (in vivo) is listed as “Five”. Also, the “Patients with stable disease” value in data set [3] (92 response-evaluable patients) is 30 patients. Also, in data set [3] (92 response-evaluable patients), the “Patients with stable disease lasting for ≥4 cycles” value is “eight”. The “Patients with partial response” value in data set [3] (92 response-evaluable patients, head and neck cancer, MTD 1.76 mg/m^2) was “one”. Also, the “Reduction in tumor diameter” value in data set [3] (one patient with kidney malignancy, progressive disease at end of study) was 14%; in data set [3] (other patient with kidney malignancy, discontinued due to grade 3 acute renal failure), 22%. In addition, the “Total duration of partial response” value in data set [3] (patient with head and neck cancer, achieved after 4 cycles, maintained for 8 cycles) is reported as 6.7 months. Moreover, the “Paired tumor samples with statistically significant increase in post-dose ATF-3 levels (p <0.05)” value in data set [4] is “Six of the seven”.
